Measured values from article PMC11233548 (Communications Biology, 2024).
Non-standard residues stand in square brackets, D forms with d. Residues, ends and D or L forms follow the SMILES beside them. No end group written: not given here. long linker = not defined here; AEEA = NCCOCCOCC(=O)O

Key:
H-RasG12V nanoclustering [1] = assay: Electron microscopy-based analysis of H-RasG12V nanoclustering in BHK cells; type: cell-based, baby hamster kidney (BHK) cells; conditions: membrane sheets of Gal1-expressing BHK cells; n = 15
Description: To quantify the nanoclustering of a component integral to the plasma membrane (PM), the apical PM sheets of baby hamster kidney (BHK) cells expressing a GFP-tagged H-Ras construct were fixed with 4% (w/v) PFA and 0.1% (w/v) glutaraldehyde. GFP anchored to the PM sheets was probed with 4.5 nm gold particles pre-coupled to anti-GFP antibody. Following embedment with methyl cellulose, the PM sheets were imaged using transmission electron microscopy (JEOL JEM-1400). Using the coordinates of every gold particle, Ripley’s K-function calculated the extent of nanoclustering of gold particles within a selected 1 μm^2 PM area: K(r)=An^−2∑i≠jwij1(∥xi−xj∥≤r) Lr−r=Kr/π−r where n gold particles populate in an intact area of A; r is the length between 1 and 240 nm; || ^. || indicates Euclidean distance where 1(^.) = 1 if ||xi − xj|| ≤ r and 1(^.) = 0 if ||xi − xj|| > r; K(r) specifies the univariate K-function. wij^−1 is a parameter used for an unbiased edge correction and characterizes the proportion of the circumference of a circle that has the center at xi and radius ||xi-xj||. Monte Carlo simulations estimate the 99% confidence interval (99% C.I.), which is then used to linearly transform K(r) into L(r) − r. On a nanoclustering curve of L(r) − r vs. r, the peak L(r) − r value is used as summary statistics for nanoclustering and is termed as Lmax. […]

RASSF7 = assay: SNAP-tag mediated pull-down from HEK lysates, RASSF7; type: binding, human cell line HEK293-EBNA; conditions: lysates of Gal1-transfected HEK cells; n = 4
Method: (§1) For the pull-down of interactors of L5UR-SNAP and control constructs, HEK293 EBNA cells were plated on 10 cm dishes. For each dish, 5 µg of pDest305-CMV-hGal1 and pEF-L5UR-SNAP, pEF-mutL5UR-SNAP, or pEF-SNAP were transfected. Transfection was done at ≥70% confluency using 2 µL jetPRIME per 1 µg DNA transfected, according to the manufacturer’s instructions. After about 24 h, the growth medium was removed, cells were rinsed twice in cold PBS, and each dish was lysed in 1 mL lysis buffer, consisting of 20 mM HEPES pH 7.5, 4 mM β-mercaptoethanol, 0.05% Igepal, 1× Protease Inhibitor (Thermo Scientific, #A32955) and 1× PhosSTOP (Roche, #04 906 837 001). The cells were scraped and transferred to Eppendorf tubes, then incubated on ice for 30 min, with occasional mixing by inverting the tube. The lysate was cleared by centrifugation for 15 min at 4 °C and 16,363 rcf. Cleared lysate was transferred to a clean tube, 15 µL sample was withdrawn as “Input” for Western blot analysis, and 25 µL of SNAP-capture magnetic beads (New England Biolabs, #S9145S) suspension (diluted 1:1 in lysis buffer) was added. The samples were further incubated for 2 h at room temperature (20–25 °C) on a rotating wheel. […] The samples were resolved on 4–20% SDS-PAGE gels in Tris-Gly buffer and analyzed by Western blotting. […]

ASPP2 = assay: SNAP-tag mediated pull-down from HEK lysates, ASPP2; type: binding, human cell line HEK293-EBNA; conditions: lysates of Gal1-transfected HEK cells; n = 4
Method: as §1

B-Raf = assay: SNAP-tag mediated pull-down from HEK lysates, B-Raf; type: binding, human cell line HEK293-EBNA; conditions: lysates of Gal1-transfected HEK cells; n = 4
Method: as §1

C-Raf = assay: SNAP-tag mediated pull-down from HEK lysates, C-Raf; type: binding, human cell line HEK293-EBNA; conditions: lysates of Gal1-transfected HEK cells; n = 4
Method: as §1

[2] = system: catalytic subunit of PI3Kα; assay: SNAP-tag mediated pull-down from HEK lysates, PI3Kα catalytic subunit; type: binding, human cell line HEK293-EBNA; conditions: lysates of Gal1-transfected HEK cells; n = 4
Method: as §1

H-RasG12V nanoclustering [3] = assay: H-RasG12V nanoclustering-BRET in HEK cells; type: cell-based, human; conditions: n = 3
Gal1 = assay: SNAP-tag mediated pull-down from HEK lysates, Gal1; type: binding, human cell line HEK293-EBNA; conditions: lysates of Gal1-transfected HEK cells
Method: as §1

Gal1/B-RBD = Gal1/B-RBD (Homo sapiens, UniProt P15056); assay: Gal1/B-RBD BRET in HEK cells; type: cell-based
Gal1/B-RBD, sequence (P15056 155-227): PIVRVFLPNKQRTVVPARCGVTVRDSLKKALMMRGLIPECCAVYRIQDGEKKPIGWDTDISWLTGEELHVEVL

MIA PaCa-2 cells = assay: 2D cell viability (alamarBlue), MIA PaCa-2; type: cell-based, human; conditions: 48 h treatment, n = 3
T24 cells (pERK, pAkt) = type: cell-based, human; conditions: n = 3–8
HEK cells (pERK, pAkt) = type: cell-based, human; conditions: 2 h, EGF 200 ng/mL 10 min; n = 3–8
T24 cells = assay: 2D cell viability (alamarBlue), T24; type: cell-based, human; conditions: 48 h treatment, n = 3
[4] = system: Hs 578 T, T24, MIA PaCa-2, and HEK cells; assay: Drug sensitivity score DSS3 from viability data; type: cell-based, human; conditions: 48 h; Fig. 6e
Method: The cells were seeded in low attachment, suspension cell culture 96-well plates (Greiner, #655185). About 2000 T24, MIA PaCa-2, and HEK cells and 5000 Hs 578 T cells were seeded per well in a 50 µL complete growth medium. 24 h later, the cells were treated with 50 µL 2× peptide diluted in the growth medium or 0.2% (v/v) of the positive control, benzethonium chloride stock at 100 mM in H2O (Sigma-Aldrich, #B8879). […] Using a CLARIOstar plate reader the fluorescence signal (λexcitation 560 ± 5 nm and λemission 590 ± 5 nm) was recorded. The florescence signal was normalized against the negative control, here DMSO in buffer, representing 100% viability. Additionally, the data was analyzed using Breeze 2.0 to determine a drug sensitivity score (DSS), a normalized area under the curve (AUC). Here we plot only one of the output values from the Breeze pipeline, the DSS3 value, which was calculated as DSS3=DSS2x2−x1/Cmax−Cmin where DSS2 is given by the equation DSS2=DSS1/loga
And DSS1 is given by the equation DSS1=AUC−t(x2−x1)/(100−t)(Cmax−Cmin)
After dose–response inhibition data fitting with a logistic function, the area under the curve (AUC) was determined. The activity threshold (t) was set to ≥10%. The maximum (Cmax) and minimum (Cmin) concentrations used for screening of the inhibitors, with Cmax = x2 and x1 concentration with minimal activity t. […]

[5] = system: MIA PaCa-2 cells (pERK, pAkt); assay: Immunoblot of EGF-induced pERK and pAkt in MIA PaCa-2; type: cell-based, human; conditions: 2 h, EGF 200 ng/mL 10 min; KRAS-G12C; n = 3–8
Hs 578 T cells = assay: 2D cell viability (alamarBlue), Hs 578 T; type: cell-based, human; conditions: 48 h treatment, n = 3
[6] = system: Hs 578 T cells (pERK, pAkt); assay: Immunoblot of EGF-induced pERK and pAkt in Hs 578 T; type: cell-based, human; conditions: 1–20 µM, 2 h, EGF 200 ng/mL 10 min; HRAS-G12D; n = 3–8

## L5UR-SNAP: genetic construct with SNAP-tag added via a long linker to the C-terminus of L5UR (LLRPTAASQSRALGPGAPGGSSRSSLRSRWGRFLLQRGSWTGPRCWPRGFQS-{long linker-SNAP‑tag}; reading uncertain)
H-RasG12V nanoclustering [1]
  disruption of H-RasG12V nanoclustering (Lmax): The disruption of H-RasG12V nanoclustering specifically by L5UR-SNAP
RASSF7
  pull-down of RASSF7: as were its two RA-domain containing interaction partners, RASSF7 and RASSF9
ASPP2
  pull-down of ASPP2: it was pulled down by L5UR-SNAP
B-Raf
  pull-down of B-Raf: pulled down
C-Raf
  pull-down of C-Raf: pulled down
[2]
  pull-down of catalytic subunit of PI3Kα: pulled down
H-RasG12V nanoclustering [3]; expression (48 h), co-transfection of 200 ng Gal1 plasmid, donor:acceptor 1:5, Fig. 3c
  reduction of H-RasG12V nanoclustering-BRET: ~ 33%
H-RasG12V nanoclustering [3]; expression (48 h), with co-transfection of 200 ng Gal1 plasmid, donor:acceptor 1:5
  effect of construct expression on H-RasG12V nanoclustering-BRET: decreased Gal1-enhanced H-RasG12V nanoclustering-BRET to a similar extent as the untagged L5UR
Gal1
  pull-down of Gal1: does under those conditions not interact with Gal1
Gal1/B-RBD; expression (48 h), donor:acceptor 1:10, HEK, n = 3
  effect of construct expression on Gal1/B-RBD BRET: dose-dependently decreased BRET between Gal1 and the B-RBD

## CC(=O)NCC(=O)N[C@@H](CCCNC(=N)N)C(=O)N[C@@H](CCCCN)C(=O)N[C@@H](CCCCN)C(=O)N[C@@H](CCCNC(=N)N)C(=O)N[C@@H](CCCNC(=N)N)C(=O)N[C@@H](CCC(N)=O)C(=O)N[C@@H](CCCNC(=N)N)C(=O)N[C@@H](CCCNC(=N)N)C(=O)N[C@@H](CCCNC(=N)N)C(=O)N1CCC[C@H]1C(=O)N[C@@H](CCC(N)=O)C(=O)NCCOCCOCC(=O)N[C@@H](CO)C(=O)N[C@@H](CCCNC(=N)N)C(=O)N[C@@H](CO)C(=O)N[C@@H](CO)C(=O)N[C@@H](CC(C)C)C(=O)N[C@@H](CCCNC(=N)N)C(=O)N[C@@H](CO)C(=O)N[C@@H](CCCNC(=N)N)C(=O)N[C@@H](Cc1c[nH]c2ccccc12)C(=O)NCC(=O)N[C@@H](CCCNC(=N)N)C(=O)N[C@@H](Cc1ccccc1)C(=O)N[C@@H](CC(C)C)C(=O)N[C@@H](CC(C)C)C(=O)N[C@@H](CCC(N)=O)C(=O)N[C@@H](CCCNC(=N)N)C(=O)NCC(=O)N[C@@H](CO)C(=O)N[C@@H](Cc1c[nH]c2ccccc12)C(=O)N[C@H](C(=O)NCC(=O)N1CCC[C@H]1C(=O)N[C@@H](CCCNC(=N)N)C(N)=O)[C@@H](C)O [TAT-L5URcore] (Ac-GRKKRRQRRRPQ[AEEA]SRSSLRSRWGRFLLQRGSWTGPR-NH2)
MIA PaCa-2 cells
  proliferation/viability, MIA PaCa-2: this was also observed for KRAS-mutant MIA PaCa-2
T24 cells (pERK, pAkt)
  EGF-induced pAkt levels, T24: reduced EGF-induced cellular pERK-and pAkt-levels in a dose-dependent manner
  EGF-induced pERK levels, T24: reduced EGF-induced cellular pERK-and pAkt-levels in a dose-dependent manner
HEK cells (pERK, pAkt)
  pAkt levels, HEK: slightly induced by TAT-L5URcore, as were pAkt-levels
  pERK levels, HEK: slightly induced
T24 cells
  proliferation/viability, T24: specifically reduced by TAT-L5URcore
[4]
  anti-proliferative effect (DSS3): higher anti-proliferative effect of TAT-L5URcore as compared to TAT-mutL5URcore
H-RasG12V nanoclustering [3]; peptide added to HEK cells, 2 h incubation, 37 °C, donor:acceptor 1:5, 200 ng Gal1 plasmid
  EC50: 19 ± 1 µM
[5]
  pAkt levels, MIA PaCa-2: pAkt-levels were reduced at 20 µM
  pERK levels, MIA PaCa-2: pERK remained unaffected
Hs 578 T cells
  proliferation/viability, Hs 578 T: specifically reduced by TAT-L5URcore
[6]
  EGF-induced pAkt levels, Hs 578 T: reduced EGF-induced cellular pERK-and pAkt-levels in a dose-dependent manner
  EGF-induced pERK levels, Hs 578 T: reduced EGF-induced cellular pERK-and pAkt-levels in a dose-dependent manner
Gal1/B-RBD
  EC50: 16 ± 1 µM
